Source: patent US8450067B2, “Method for obtaining anti-idiotype antibodies” (Omrix Biopharmaceuticals Inc., priority 2002, dated 2013)
Where two headings read alike, the source gives them in different places.

Columns and labels:
[1] = test system: control IgG (IgG purified from one donor); assay: Direct binding ELISA, negative control immunoglobulin; set-up: species or system human
Protocol: (§1) The binding of anti-Id to the peptides was tested by ELISA.
(§2) ELISA plates were coated by 10 ug/ml of peptides in PBS overnight at 4° C. The plates were blocked with 3% BSA for 1hr at 37° C. Anti-Id was added at different concentrations. IgG purified from one donor was used as negative control.
(§3) The binding of the immunoglobulin was probed with goat anti-human IgG conjugated to alkaline phosphatase and the appropriate substrate. Between each step, extensive washings were performed with 0.05% PBS-Tween.
(§4) The same protocol was used as above, but the peptides used in this study were taken from the literature except for peptide number 1 which is the first peptide in the previous experiment.

[2] = test system: anti-anti-dsDNA (anti-Id) isolated from IVIG; assay: Direct binding of anti-Id to the synthetic peptides by ELISA; set-up: species or system human
Protocol: as §1, §2, §3, §4

[3] = test system: immunoglobulin elution peak from a peptide column bound with peptide 707; assay: ELISA of peptide column eluate with biotinylated peptides (707 column); format: binding, human; settings: FIG. 4
Protocol: (§5) To measure the binding efficacy of peptide column eluates (706 and 707) the following ELISA was performed:
(§6) Microtiter plates (Costar, USA) were coated overnight at 2-8° C. with 10 μg/ml NeutrAvidin (Pierce, USA) suspended in 0.1M, pH 8.8, of carbonate-bicarbonate buffer (Sigma USA). The coating solution was removed, washed three times with washing buffer (1×PBS) and 200 μl of blocking solution (freshly prepared 1% I Block, Tropix, USA) per well was added and incubated for 1 hour at 37° C. Coated and blocked plates can be stored at −20° C. for a month before use.
(§7) Tested samples diluted in the blocking solution were mixed in a separate tube with 1 μg/ml (final concentration) of the appropriate biotinylated peptide and the mixture was incubated for 1 hour at 37° C. 100 μl from each reaction tube was then transferred to the blocked microtiter plate and incubated at 37° C. for ½ hour. A 100 μl of 1:5000 Alkaline Phosphatase conjugate goat anti human IgG (Heavy and light chain from Jackson, USA) diluted in the blocking buffer was applied into the microtiter well and incubated for 1 hour. […] The measurement was done photometrically at 405 nm.

[4] = test system: immunoglobulin eluted from a peptide column bearing the peptide 706; assay: ELISA of peptide column eluate with biotinylated peptides (706 column); format: binding, human; settings: FIG. 3; biotinylated peptide 1 μg/ml
Protocol: as §5, §6, §7

mice = settings: responder mice (BALB/c, SJL), cited from earlier work
[5] = Table 2, anti-Id 10 μg/ml, plates coated with 10 ug/ml peptide

| Substance | binding of control IgG to peptide (OD at 405 nm) ([1]; Table 2, control IgG 1 μg/ml) | binding of control IgG to peptide (OD at 405 nm) ([1]; Table 2, control IgG 5 μg/ml) | binding of anti-Id to peptide (OD at 405 nm) ([2]; Table 2, anti-Id 1 μg/ml) | binding of anti-Id to peptide (OD at 405 nm) ([2]; Table 2, anti-Id 2.5 μg/ml) | binding of anti-Id to peptide (OD at 405 nm) ([2]; Table 2, anti-Id 5 μg/ml) | binding of anti-Id to peptide (OD at 405 nm) [2, 5] | further results |
| --- | --- | --- | --- | --- | --- | --- | --- |
| DWLYSRS [Pep 13] | 0.069 | 0.078 | 0.112 | 0.099 | 0.387 | 0.748 | – |
| GIWELSKEPSQKVWQMYYGT [Pep R706, reverse order of CDR1, used as a control] | – | – | – | – | – | – | binding of 707 column eluate to biotinylated peptide ([3]; biotinylated peptide 1 μg/ml): reacted even more strongly; binding of 706 column eluate to biotinylated peptide [4]: not |
| KHETTET [Pep 1] | 0.013 | 0.016 | 0.046 | 0.269 | 1.329 | 1.815 | binding of control IgG to peptide (OD at 405 nm) ([1]; Table 3, Control IgG 1 μg/ml): 0.044; binding of control IgG to peptide (OD at 405 nm) ([1]; Table 3, Control IgG 5 μg/ml): 0.043; binding of anti-Id to peptide (OD at 405 nm) ([2]; Table 3 (literature peptides), anti-Id 10 μg/ml): 1.21; binding of anti-Id to peptide (OD at 405 nm) ([2]; Table 3, anti-Id 1 μg/ml): 0.041; binding of anti-Id to peptide (OD at 405 nm) ([2]; Table 3, anti-Id 2.5 μg/ml): 0.074; binding of anti-Id to peptide (OD at 405 nm) ([2]; Table 3, anti-Id 5 μg/ml): 0.216 |
| KYKRKYP [Pep 15] | 0.037 | 0.068 | 0.049 | 0.067 | 0.117 | 0.287 | – |
| PLPDWRV [Pep 12] | 0.043 | 0.045 | 0.042 | 0.072 | 0.273 | 1.356 | – |
| PPQKHLL [Pep 14] | 0.079 | 0.083 | 0.113 | 0.234 | 0.611 | 0.987 | – |
| YYCARFLWEPYAMDYWGQGS [Pep 707, 16.6 monoclonal antibody CDR3-based peptide] | – | – | – | – | – | – | induction of SLE-like disease in mice (mice): can cause SLE symptoms; induction of SLE-like disease in mice (mice; listed as pCDR3): induced a mild SLE-like disease; specificity of the elution peak from the column bound with the peptide [3]: reacted in a non-specific manner |
